# Test results as given in patent US20240041991A1, “STABLE LIQUID DISPERSINB COMPOSITIONS” (KANE BIOTECH INC., priority 2020, published 2024).
# Like-named read-outs stand apart in the source and are kept apart here. Marks after values point to notes of the source that are not given here.
# Tested on: DispersinB
# Type: biochemical, Aggregatibacter actinomycetemcomitans
# Conditions: for % enzymatic activity of DispersinB (Mean): polyol % as in label; for temperature stabilizing effect on DispersinB at elevated temperatures: 42° C., 52° C., and 62° C.
# Method: Samples from each formula was incubated at 3 different temperatures (42° C., 52° C. and 62° C.) for 3 hours. Following a 3 hour incubation, the samples were brought to room temperature for enzymatic activity assay.
# Two-tailed paired T-test was performed by to compare each polyol containing treatment with the treatment devoid of polyol. Treatment with probability values (p) less than 5% (0.05) was considered significant.
smiles,measurement,setting,value
"OC[C@@H](O)[C@@H](O[C@H]1O[C@H](CO)[C@@H](O)[C@H](O)[C@H]1O)[C@H](O)[C@@H](O)CO [Maltitol, 4-O-α-D-Glucopyranosyl-D-glucitol]",% enzymatic activity of DispersinB (Mean),"4° C., freshly made control without polyol = 100%, listed as 1% Maltitol",102%
same,% enzymatic activity of DispersinB (Mean),"4° C., freshly made control without polyol = 100%, listed as 2.5% Maltitol",99%
same,% enzymatic activity of DispersinB (Mean),"4° C., freshly made control without polyol = 100%, listed as 5% Maltitol",95%
same,% enzymatic activity of DispersinB (Mean),"4° C., freshly made control without polyol = 100%, listed as 10% Maltitol",138* %
same,% enzymatic activity of DispersinB (Mean),"4° C., freshly made control without polyol = 100%, listed as 15% Maltitol",104%
same,% enzymatic activity of DispersinB (Mean),"4° C., freshly made control without polyol = 100%, listed as 20% Maltitol",107%
same,% enzymatic activity of DispersinB (Mean),"4° C., freshly made control without polyol = 100%, listed as 25% Maltitol",102%
same,% enzymatic activity of DispersinB (Mean),"42° C. for 3 hours, control without polyol = 100%, listed as 1% Maltitol",106* %
same,% enzymatic activity of DispersinB (Mean),"42° C. for 3 hours, control without polyol = 100%, listed as 2.5% Maltitol",110* %
same,% enzymatic activity of DispersinB (Mean),"42° C. for 3 hours, control without polyol = 100%, listed as 5% Maltitol",107* %
same,% enzymatic activity of DispersinB (Mean),"42° C. for 3 hours, control without polyol = 100%, listed as 10% Maltitol",143* %
same,% enzymatic activity of DispersinB (Mean),"42° C. for 3 hours, control without polyol = 100%, listed as 15% Maltitol",110* %
same,% enzymatic activity of DispersinB (Mean),"42° C. for 3 hours, control without polyol = 100%, listed as 20% Maltitol",116* %
same,% enzymatic activity of DispersinB (Mean),"42° C. for 3 hours, control without polyol = 100%, listed as 25% Maltitol",129* %
same,% enzymatic activity of DispersinB (Mean),"52° C. for 3 hours, control without polyol = 100%, listed as 1% Maltitol",17* %
same,% enzymatic activity of DispersinB (Mean),"52° C. for 3 hours, control without polyol = 100%, listed as 2.5% Maltitol",24* %
same,% enzymatic activity of DispersinB (Mean),"52° C. for 3 hours, control without polyol = 100%, listed as 5% Maltitol",37* %
same,% enzymatic activity of DispersinB (Mean),"52° C. for 3 hours, control without polyol = 100%, listed as 10% Maltitol",111* %
same,% enzymatic activity of DispersinB (Mean),"52° C. for 3 hours, control without polyol = 100%, listed as 15% Maltitol",102* %
same,% enzymatic activity of DispersinB (Mean),"52° C. for 3 hours, control without polyol = 100%, listed as 20% Maltitol",113* %
same,% enzymatic activity of DispersinB (Mean),"52° C. for 3 hours, control without polyol = 100%, listed as 25% Maltitol",120* %
same,% enzymatic activity of DispersinB (Mean),"62° C. for 3 hours, control without polyol = 100%, listed as 1% Maltitol",0%
same,% enzymatic activity of DispersinB (Mean),"62° C. for 3 hours, control without polyol = 100%, listed as 2.5% Maltitol",0%
same,% enzymatic activity of DispersinB (Mean),"62° C. for 3 hours, control without polyol = 100%, listed as 5% Maltitol",0%
same,% enzymatic activity of DispersinB (Mean),"62° C. for 3 hours, control without polyol = 100%, listed as 10% Maltitol",6* %
same,% enzymatic activity of DispersinB (Mean),"62° C. for 3 hours, control without polyol = 100%, listed as 15% Maltitol",8* %
same,% enzymatic activity of DispersinB (Mean),"62° C. for 3 hours, control without polyol = 100%, listed as 20% Maltitol",7* %
same,% enzymatic activity of DispersinB (Mean),"62° C. for 3 hours, control without polyol = 100%, listed as 25% Maltitol",5* %
OC[C@@H](O)[C@@H](O)[C@H](O)[C@H](O)CO [Mannitol],% enzymatic activity of DispersinB (Mean),"4° C., freshly made control without polyol = 100%, listed as 1% Mannitol",98%
same,% enzymatic activity of DispersinB (Mean),"4° C., freshly made control without polyol = 100%, listed as 2.5% Mannitol",100%
same,% enzymatic activity of DispersinB (Mean),"4° C., freshly made control without polyol = 100%, listed as 5% Mannitol",98%
same,% enzymatic activity of DispersinB (Mean),"4° C., freshly made control without polyol = 100%, listed as 10% Mannitol",102%
same,% enzymatic activity of DispersinB (Mean),"4° C., freshly made control without polyol = 100%, listed as 12% Mannitol",97%
same,% enzymatic activity of DispersinB (Mean),"42° C. for 3 hours, control without polyol = 100%, listed as 1% Mannitol",77%
same,% enzymatic activity of DispersinB (Mean),"42° C. for 3 hours, control without polyol = 100%, listed as 2.5% Mannitol",87* %
same,% enzymatic activity of DispersinB (Mean),"42° C. for 3 hours, control without polyol = 100%, listed as 5% Mannitol",88* %
same,% enzymatic activity of DispersinB (Mean),"42° C. for 3 hours, control without polyol = 100%, listed as 10% Mannitol",87* %
same,% enzymatic activity of DispersinB (Mean),"42° C. for 3 hours, control without polyol = 100%, listed as 12% Mannitol",86* %
same,temperature stabilizing effect on DispersinB at elevated temperatures,,did not exhibit temperature stabilizing effects
same,% enzymatic activity of DispersinB (Mean),"52° C. for 3 hours, control without polyol = 100%, listed as 5% Mannitol",1* %
same,% enzymatic activity of DispersinB (Mean),"52° C. for 3 hours, control without polyol = 100%, listed as 10% Mannitol",14* %
same,% enzymatic activity of DispersinB (Mean),"52° C. for 3 hours, control without polyol = 100%, listed as 12% Mannitol",53* %
"OCC(O)CO [glycerol, Propane-1,2,3-triol]",% enzymatic activity of DispersinB (Mean),"4° C., freshly made control without polyol = 100%, listed as Glycerol 1%",117* %
same,% enzymatic activity of DispersinB (Mean),"4° C., freshly made control without polyol = 100%, listed as Glycerol 2.5%",114* %
same,% enzymatic activity of DispersinB (Mean),"4° C., freshly made control without polyol = 100%, listed as Glycerol 5%",116* %
same,% enzymatic activity of DispersinB (Mean),"4° C., freshly made control without polyol = 100%, listed as Glycerol 10%",124* %
same,% enzymatic activity of DispersinB (Mean),"4° C., freshly made control without polyol = 100%, listed as Glycerol 20%",128* %
same,% enzymatic activity of DispersinB (Mean),"4° C., freshly made control without polyol = 100%, listed as Glycerol 30%",131* %
same,% enzymatic activity of DispersinB (Mean),"42° C. for 3 hours, control without polyol = 100%, listed as Glycerol 1%",94* %
same,% enzymatic activity of DispersinB (Mean),"42° C. for 3 hours, control without polyol = 100%, listed as Glycerol 2.5%",98* %
same,% enzymatic activity of DispersinB (Mean),"42° C. for 3 hours, control without polyol = 100%, listed as Glycerol 5%",90* %
same,% enzymatic activity of DispersinB (Mean),"42° C. for 3 hours, control without polyol = 100%, listed as Glycerol 10%",115* %
same,% enzymatic activity of DispersinB (Mean),"42° C. for 3 hours, control without polyol = 100%, listed as Glycerol 20%",112* %
same,% enzymatic activity of DispersinB (Mean),"42° C. for 3 hours, control without polyol = 100%, listed as Glycerol 30%",116* %
same,temperature stabilizing effect on DispersinB at elevated temperatures,,exhibited temperature stabilizing effect
same,% enzymatic activity of DispersinB (Mean),"52° C. for 3 hours, control without polyol = 100%, listed as Glycerol 5%",16* %
same,% enzymatic activity of DispersinB (Mean),"52° C. for 3 hours, control without polyol = 100%, listed as Glycerol 10%",31* %
same,% enzymatic activity of DispersinB (Mean),"52° C. for 3 hours, control without polyol = 100%, listed as Glycerol 20%",92* %
same,% enzymatic activity of DispersinB (Mean),"52° C. for 3 hours, control without polyol = 100%, listed as Glycerol 30%",93* %
